Read-outs that look alike come from different tables or passages of the source.
What was measured:
PbdA [1] = target: T1, PbdA (Rhodococcus jostii, UniProt Q0SCI3); assay: Substrate binding to PbdA (WT) by type I spectral shift titration; parameters: hexaHis (N, cleaved yes); made in house; host or cells: PbdA: E. coli BL-21 λ (DE3); PbdB: Rhodococcus jostii RHA1; conditions: for %High-spin (percent of heme iron in high-spin state): on substrate binding
T1 sequence (Q0SCI3 1-400): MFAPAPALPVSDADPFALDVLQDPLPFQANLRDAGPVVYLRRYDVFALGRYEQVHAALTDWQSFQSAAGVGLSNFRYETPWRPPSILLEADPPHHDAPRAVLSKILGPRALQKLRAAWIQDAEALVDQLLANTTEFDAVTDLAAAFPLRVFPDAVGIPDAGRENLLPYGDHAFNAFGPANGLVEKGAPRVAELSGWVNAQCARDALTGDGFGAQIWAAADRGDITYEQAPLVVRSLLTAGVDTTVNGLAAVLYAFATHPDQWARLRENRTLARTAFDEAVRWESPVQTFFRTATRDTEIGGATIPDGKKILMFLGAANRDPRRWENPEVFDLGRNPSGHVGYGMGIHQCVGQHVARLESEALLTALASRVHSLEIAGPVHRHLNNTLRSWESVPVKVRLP
Protocol: The affinity of PbdA for various LDACs was measured by the type I spectral shift upon titration of aromatic compound (Fig. 2). This shift occurs as the compound displaces a water coordinated to the heme iron, initiating a spin state transition in the latter from a low spin, hexacoordinate, to a high spin, pentacoordinate form.
Figure 2 Substrate binding of PbdA. A, difference spectra of PbdA titrated with 1 to 50 μM p-MBA from the substrate-free enzyme. Darker colors indicate higher concentration of p-MBA. Spectra were collected after each addition of substrate to 1 μM enzyme in 20 mM Mops, I = 0.1 M, pH 7.2. B, binding isotherm of PbdA and p-MBA. The fitted curve represents a simple hyperbola. p-MBA, para-methoxybenzoate.
UV-visible spectroscopy was conducted with a Cary 60 spectrophotometer equipped with a thermostatted cuvette holder at 25 °C. Scans of purified proteins diluted in 20 mM Mops, I = 0.1 M, pH 7.2 were taken between 250 and 700 nm. Heme concentration was calculated as described previously ([35]). Carbon monoxide binding was determined by reduction of PbdA diluted in 20 mM Mops, I = 0.1 M, pH 7.2 as above by a few grains of […]. CO was bubbled into the reduced enzyme for approximately 60 s at a rate of one bubble per second. Dissociation constants (Kd) were determined by titration of ligands diluted into enzyme buffer from 1 M stocks prepared in dimethyl sulfoxide into PbdA diluted in 20 mM Mops, I = 0.1 M, pH 7.2. Spectra take upon addition of substrate were subtracted from the spectrum of the enzyme, and peak-to-trough distance was plotted by ligand concentration. Kd values were determined by fitting a hyperbolic equation to the data as described previously ([23], [36]). The proportion of high-spin heme iron was determined using the approximate peak-to-trough extinction coefficient (ε ≈ 100 mM^−1 cm^−1) ([36]).

PbdA [2] = target: T1, PbdA; conditions: for NADH depletion rate / Rate of Aromatic turnover / Coupling: WT PbdAB; for NADH depletion rate: air-saturated MOPS (I = 0.1 M); for Rate of Aromatic turnover: appearance of O-demethylated product (disappearance of p-EB); for Coupling: ratio of aromatic turnover rate to NADH oxidation rate
Protocol: We then measured coupling under optimum conditions for other substrates. […] Finally, we measured the apparent steady-state kinetic parameters of the PbdA reaction under conditions of maximal coupling (Fig. S4).
For activity measurements 0.25 to 1 μM of PbdA and PbdB were combined in a 200 μl cuvette in 20 mM Mops, pH 7.2 with substrate diluted in the same buffer. NADH was added to 350 μM to initiate the reaction. For HPLC analysis, enzymatic reactions were acidified by adding acetic acid to 10% final concentration, centrifuged (16,000×g for 10 min), and filtered through a 0.2 μm polytetrafluoroethylene membrane. Samples were run over a Luna 5 μm C18(2) 100 Å 150 × 3 mm column (Phenomenex) at 0.7 ml min^−1 by a Waters 2695 separation HPLC module. Samples were eluted with a 16.8 ml linear gradient from 1% methanol plus 0.1% formic acid in water to 100% methanol plus 0.1% formic acid and monitored at 280 nm with a Waters 2996 photodiode array detector. Concentrations were determined by interpolation on a standard curve of 0 to 1 mM of authentic standard. NADH concentration was measured by absorbance at 340 nm, ε = 6.22 mM^-1 cm^-1. Coupling was calculated from the ratio of rate of aromatic turnover, as determined by HPLC, and the rate of NADH oxidation, determined spectroscopically. Buffer ionic strength was adjusted by addition of NaCl, as appropriate. Apparent steady-state kinetic parameters were calculated by fitting Michaelis–Menten equations to initial velocity of reactions at various concentrations of aromatic substrate (LEONORA).

CYP199A2 = tested on: CYP199A2; parameters: method as in PMID 20024082; conditions: cited from earlier work
RHA1 = assay: Growth of RHA1 on p-EB; format: cell-based, Rhodococcus jostii RHA1; conditions: M9G with up to 5 mM p-EB; OD600 after 48 hours
Protocol: RHA1 was grown in M9 media supplemented with a mixture trace metals […]) ([37]) and growth substrate. Growth substrates were solubilized in dimethyl sulfoxide and added to the media. For the growth on p-EB experiment, RHA1 was grown in 1 ml […] supplemented with 5 mM benzoate for 1 day shaking at 30 °C. The cells were spun harvested and washed twice with […] and added to 3 ml […] containing p-EB or benzoate at a final OD600 of 0.05. OD600 of 150 μl culture in a 96-well plate was measured by a TECAN Spark microplate reader. […] When OD600 reached 0.6, cells were harvested, washed twice in […] and suspended in 50 ml of […] 1 mM p-EB. After 4 h of incubation, cell supernatant was collected for LC-MS analysis. Figure S6: Growth of RHA1 on p-EB. Growth of WT in […] supplemented with up to 5 mM of p-EB or 5 mM benzoate. OD600 was measured after 48 hours incubation.

[3] = WT PbdA, 20 mM Mops, I = 0.1 M, pH 7.2, 25 °C, SD in parentheses, read-out: Kd
[4] = pH 7.2, 25 °C, SD in parentheses

Structure (SMILES)	Kd (PbdA [1]; [3]) [µM]	%High-spin (percent of heme iron in high-spin state) (PbdA [1]; WT PbdA) [%]	NADH depletion rate (PbdA [2]; [4])	Rate of Aromatic turnover (PbdA [2]; SD in parentheses)	Coupling (PbdA [2])	Coupling (PbdA [2]; listed as isovanillate)	Kd (PbdA [1]) [µM]	Turnover of substrate (CYP199A2)	Coupling (PbdA [2]; listed as veratrate)	Growth of RHA1 on the compound as substrate (RHA1)	kcat (apparent) (PbdA [2]; WT PbdA with PbdB, air-saturated Mops (I = 0.1 M), pH 7.2, 25 °C, SD in parentheses)	Km (PbdA [2]; read-out: KM (apparent), WT PbdA with PbdB, air-saturated Mops (I = 0.1 M), pH 7.2, 25 °C, SD in parentheses) [µM]
COc1ccc(C(=O)O)cc1O [Isovanillate, isovanillate]	90	94	2200 (200) U mg P450^-1	1600 (100) U mg P450^-1	75.3 (0.1) %	approximately 75%	–	–	–	–	–	–
COc1ccc(C(=O)O)cc1OC [Veratrate, veratrate]	–	84	2830 (50) U mg P450^-1	2030 (60) U mg P450^-1	72 (3) %	–	18	did not detectibly turn over	approximately 75%	–	–	–
CCc1ccc(C(=O)O)cc1 [p-EB, p-ethylbenzoate]	6	72	830 (80) U mg P450^-1	900 (100) U mg P450^-1	110 (7) %	–	–	–	–	did not grow	0.14 (0.01) s^−1	12

— article PMC11530827, “Characterization of a cytochrome P450 that catalyzes the O-demethylation of lignin-derived benzoates” (The Journal of Biological Chemistry, 2024)
